The structures appear in SMILES notation. Structures can show the parent of a compound that is named as a salt. Where two headings read alike, the source gives them in different places.

The assay deals with human SPR (Homo sapiens (Human), UniProt P35270). The assay can be described thus: Evaluation Example 2: Measurement of human SPR inhibitory activity (seven concentrations, sepiapterin absorbance at 420 nm). In kind it is biochemical. Summed up:
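His-tagged full-length human SPR (1-261) was expressed in E. coli and the tag removed. Enzyme at 150 ng/mL in 100 mM Tris-HCl pH 7.5/0.01% BSA was mixed with compound (0.14–100 nM, seven points), 120 μM sepiapterin and 160 μM NADPH, both as added-solution concentrations. After 240 min at room temperature, remaining sepiapterin was read at 420 nm to give percent inhibition.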

Setting [1] is: Evaluation Example 2, seven concentrations 0.14 nM to 100 nM, 240 minutes at room temperature, read-out: IC50.
Where [2] appears, read: sepiapterin absorbance, Table 41, read-out: concentration at 50% inhibition of human SPR (IC50).

Sequence of human SPR (P35270 whole entry): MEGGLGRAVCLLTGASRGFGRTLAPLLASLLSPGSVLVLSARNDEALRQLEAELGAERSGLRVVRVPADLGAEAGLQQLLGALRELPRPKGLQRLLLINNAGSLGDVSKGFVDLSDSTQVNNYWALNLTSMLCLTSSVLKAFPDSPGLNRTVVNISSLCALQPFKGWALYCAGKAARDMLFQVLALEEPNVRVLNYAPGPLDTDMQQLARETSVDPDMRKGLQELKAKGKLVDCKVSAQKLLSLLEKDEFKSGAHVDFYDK

Take `CC(C)Cn1c(=O)c(C(=O)NC2CC2)c(O)n2ncc(/C=C/C(=O)N(C)C(C)C)c12` [compound 503, (E)-N-Cyclopropyl-7-hydroxy-4-isobutyl-3-(3-(isopropyl(methyl)amino)-3-oxoprop-1-en-1-yl)-5-oxo-4,5-dihydropyrazolo[1,5-a]pyrimidine-6-carboxamide]: the IC50 under setting [1] stood at 0.8 nM. Same read-out and setting: for `Cc1nn2c(O)c(C(=O)NC3CC3)c(=O)n(CC(C)C)c2c1/C=C/C(=O)N1CC2CCC(C1)C2(F)F` [Synthesis Example 651, (E)-N-Cyclopropyl-3-(3-(8,8-difluoro-3-azabicyclo[3.2.1]octan-3-yl)-3-oxoprop-1-en-1-yl)-7-hydroxy-4-isobutyl-2-methyl-5-oxo-4,5-dihydropyrazolo[1,5-a]pyrimidine-6-carboxamide] the value was 1.19 nM; for `Cc1nn2c(O)c(C(=O)NC3CC3)c(=O)n(CC(C)C)c2c1/C=C/C(=O)N1CCC[C@@H]1C(F)F` [Synthesis Example 632, (R,E)-N-Cyclopropyl-3-(3-(2-(difluoromethyl)pyrrolidin-1-yl)-3-oxoprop-1-en-1-yl)-7-hydroxy-4-isobutyl-2-methyl-5-oxo-4,5-dihydropyrazolo[1,5-a]pyrimidine-6-carboxamide], 1.51 nM. As to `CCC(N)c1cc2n(CC(C)(C)C)c(=O)c(C(=O)NC3CC3)c(O)n2n1` (racemic) [Synthesis Example 280, 2-(1-Aminopropyl)-N-cyclopropyl-7-hydroxy-4-neopentyl-5-oxo-4,5-dihydropyrazolo[1,5-a]pyrimidine-6-carboxamide hydrochloride (racemate)], the IC50 under setting [1] was 5.64 nM. With `CC(C)Cn1c(=O)c(C(=O)NC2CC2)c(O)n2ncc(/C=C/C(=O)N(C3CC3)C3CC3)c12` [compound 515, (E)-N-Cyclopropyl-3-(3-(dicyclopropylamino)-3-oxoprop-1-en-1-yl)-7-hydroxy-4-isobutyl-5-oxo-4,5-dihydropyrazolo[1,5-a]pyrimidine-6-carboxamide], under setting [1], the IC50 was 0.84 nM. Consider `C[C@@H](Nc1cc2n(CC(C)(C)C)c(=O)c(C(=O)NC3CC3)c(O)n2n1)c1ccccn1` [Synthesis Example 327, (R)-N-Cyclopropyl-7-hydroxy-4-neopentyl-5-oxo-2-((1-(pyridin-2-yl)ethyl)amino)-4,5-dihydropyrazolo[1,5-a]pyrimidine-6-carboxamide], for which the IC50 under setting [1] amounted to 2.39 nM.

`Cc1nn2c(O)c(C(=O)NC3CC3)c(=O)n(CC(C)C)c2c1/C=C/C(=O)N1CCOCC1(C)C` [Synthesis Example 656, (E)-N-Cyclopropyl-3-(3-(3,3-dimethylmorpholino)-3-oxoprop-1-en-1-yl)-7-hydroxy-4-isobutyl-2-methyl-5-oxo-4,5-dihydropyrazolo[1,5-a]pyrimidine-6-carboxamide]: the IC50 under setting [1] was found to be 1.15 nM. On the same count and under the same terms, for `Cc1noc(C)c1/C=C/c1cnn2c(O)c(C(=O)NC3CC3)c(=O)n(CC(C)C)c12` [Synthesis Example 238, (E)-N-Cyclopropyl-3-(2-(3,5-dimethylisoxazol-4-yl)vinyl)-7-hydroxy-4-isobutyl-5-oxo-4,5-dihydropyrazolo[1,5-a]pyrimidine-6-carboxamide] the value was 0.89 nM. On the same count and under the same terms, for `CC(C)Cn1c(=O)c(C(=O)NC2CC2)c(O)n2ncc(/C=C/C(=O)N(C)CC#N)c12` [compound 498, (E)-3-(3-((Cyanomethyl)(methyl)amino)-3-oxoprop-1-en-1-yl)-N-cyclopropyl-7-hydroxy-4-isobutyl-5-oxo-4,5-dihydropyrazolo[1,5-a]pyrimidine-6-carboxamide] the value was 0.72 nM; for `CC(C)(C)Cn1c(=O)c(C(=O)NC2CC2)c(O)n2nc(-c3ccccn3)cc12` [Synthesis Example 299, N-Cyclopropyl-7-hydroxy-4-neopentyl-5-oxo-2-(pyridin-2-yl)-4,5-dihydropyrazolo[1,5-a]pyrimidine-6-carboxamide], 6.43 nM.

Turning to `Cc1nn2c(O)c(C(=O)NC3CC3)c(=O)n(CC(C)C)c2c1/C=C/C(=O)N1[C@H](C)CC[C@@H]1C` [Synthesis Example 618, N-Cyclopropyl-3-((E)-3-(cis-2,5-dimethylpyrrolidin-1-yl)-3-oxoprop-1-en-1-yl)-7-hydroxy-4-isobutyl-2-methyl-5-oxo-4,5-dihydropyrazolo[1,5-a]pyrimidine-6-carboxamide], the IC50 under setting [1] came out at 1.8 nM. Still for that read-out and setting: for `Cc1ccc(CNC(=O)c2cnn3c(O)c(C(=O)NC4CC4)c(=O)n(CC(C)C)c23)nc1` [Synthesis Example 228, N6-Cyclopropyl-7-hydroxy-4-isobutyl-N3-((5-methylpyridin-2-yl)methyl)-5-oxo-4,5-dihydropyrazolo[1,5-a]pyrimidine-3,6-dicarboxamide] the value was 1.02 nM.

In the case of `CC(C)Cn1c(=O)c(C(=O)NC2CC2)c(O)n2ncc(/C=C/C(=O)N3CCc4cnccc43)c12` [Synthesis Example 740, (E)-N-Cyclopropyl-3-(3-(2,3-dihydro-1H-pyrrolo[3,2-c]pyridin-1-yl)-3-oxoprop-1-en-1-yl)-7-hydroxy-4-isobutyl-5-oxo-4,5-dihydropyrazolo[1,5-a]pyrimidine-6-carboxamide], the IC50 under setting [2] stood at 1.81 nM. On to `CC(C)Cn1c(=O)c(C(=O)NC2CC2)c(O)n2ncc(/C=C/C(=O)N3[C@@H](C)CC[C@@H]3C)c12` [compound 591, N-Cyclopropyl-3-((E)-3-((2S,5S)-2,5-dimethylpyrrolidin-1-yl)-3-oxoprop-1-en-1-yl)-7-hydroxy-4-isobutyl-5-oxo-4,5-dihydropyrazolo[1,5-a]pyrimidine-6-carboxamide], for which the IC50 under setting [1] turned out to be 1.29 nM.

`COC[C@H]1CCCN1C(=O)/C=C/c1cnn2c(O)c(C(=O)NC3CC3)c(=O)n(CC(C)C)c12` [compound 548, (R,E)-N-Cyclopropyl-7-hydroxy-4-isobutyl-3-(3-(2-(methoxymethyl)pyrrolidin-1-yl)-3-oxoprop-1-en-1-yl)-5-oxo-4,5-dihydropyrazolo[1,5-a]pyrimidine-6-carboxamide]: the IC50 under setting [1] stood at 0.79 nM. `CC(C)Cn1c(=O)c(C(=O)NC2CC2)c(O)n2ncc(/C=C/C(=O)N3CC4CCC(C3)O4)c12` [compound 456, (E)-3-(3-(8-Oxa-3-azabicyclo[3.2.1]octan-3-yl)-3-oxoprop-1-en-1-yl)-N-cyclopropyl-7-hydroxy-4-isobutyl-5-oxo-4,5-dihydropyrazolo[1,5-a]pyrimidine-6-carboxamide]: the IC50 under setting [1] is 0.58 nM. On the same count and under the same terms, for `Cc1nn2c(O)c(C(=O)NC3CC3)c(=O)n(CC(C)C)c2c1/C=C/C(=O)N1C2CCC1CC(F)(F)C2` [Synthesis Example 650, (E)-N-Cyclopropyl-3-(3-(3,3-difluoro-8-azabicyclo[3.2.1]octan-8-yl)-3-oxoprop-1-en-1-yl)-7-hydroxy-4-isobutyl-2-methyl-5-oxo-4,5-dihydropyrazolo[1,5-a]pyrimidine-6-carboxamide] the value was 0.95 nM; for `CC(C)Cn1c(=O)c(C(=O)NC2CC2)c(O)n2ncc(C(=O)NCc3ccccn3)c12` [Synthesis Example 215, N6-Cyclopropyl-7-hydroxy-4-isobutyl-5-oxo-N3-(pyridin-2-ylmethyl)-4,5-dihydropyrazolo[1,5-a]pyrimidine-3,6-dicarboxamide], 1.04 nM. The same measure, in the same setting: as for `Cc1cc(Nc2cc3n(CC(C)(C)C)c(=O)c(C(=O)NC4CC4)c(O)n3n2)ncn1` [Synthesis Example 339, N-Cyclopropyl-7-hydroxy-2-((6-methylpyrimidin-4-yl)amino)-4-neopentyl-5-oxo-4,5-dihydropyrazolo[1,5-a]pyrimidine-6-carboxamide], the figure is 4.57 nM.

With `CC(C)Cn1c(=O)c(C(=O)NC2CC2)c(O)n2ncc(/C=C/C(=O)N(C)Cc3ccccn3)c12` [Synthesis Example 710, (E)-N-Cyclopropyl-7-hydroxy-4-isobutyl-3-(3-(methyl(pyridin-2-ylmethyl)amino)-3-oxoprop-1-en-1-yl)-5-oxo-4,5-dihydropyrazolo[1,5-a]pyrimidine-6-carboxamide], under setting [2], the IC50 was 1.01 nM. On the same count and under the same terms, for `CC(C)Cn1c(=O)c(C(=O)NC2CC2)c(O)n2ncc(/C=C/C(=O)N3CCc4cc(C#N)ccc43)c12` [Synthesis Example 732, (E)-3-(3-(5-Cyanoindolin-1-yl)-3-oxoprop-1-en-1-yl)-N-cyclopropyl-7-hydroxy-4-isobutyl-5-oxo-4,5-dihydropyrazolo[1,5-a]pyrimidine-6-carboxamide] the value was 1.7 nM. For `COC[C@@H]1CCCN1C(=O)/C=C/c1cnn2c(O)c(C(=O)NC3CC3)c(=O)n(CC(C)C)c12` [compound 549, (S,E)-N-Cyclopropyl-7-hydroxy-4-isobutyl-3-(3-(2-(methoxymethyl)pyrrolidine-1-yl)-3-oxoprop-1-en-1-yl)-5-oxo-4,5-dihydropyrazolo[1,5-a]pyrimidine-6-carboxamide], under setting [1], the IC50 worked out at 0.73 nM. `CC(C)(C)Cn1c(=O)c(C(=O)NC2CC2)c(O)n2nc(-c3cccnc3N)c(Br)c12` [compound 448, 2-(2-Aminopyridin-3-yl)-3-bromo-N-cyclopropyl-7-hydroxy-4-neopentyl-5-oxo-4,5-dihydropyrazolo[1,5-a]pyrimidine-6-carboxamide]: the IC50 under setting [1] stood at 8.22 nM.

On to `COC[C@@H]1COCCN1C(=O)/C=C/c1c(C)nn2c(O)c(C(=O)NC3CC3)c(=O)n(CC(C)C)c12` [Synthesis Example 682, (R,E)-N-Cyclopropyl-7-hydroxy-4-isobutyl-3-(3-(3-(methoxymethyl)morpholino)-3-oxoprop-1-en-1-yl)-2-methyl-5-oxo-4,5-dihydropyrazolo[1,5-a]pyrimidine-6-carboxamide], for which the IC50 under setting [2] stood at 0.85 nM. In the case of `CC(C)Cn1c(=O)c(C(=O)NC2CC2)c(O)n2nc(C(N)=O)c(/C=C/C(=O)N3CCOCC3)c12` [compound 450, (E)-N6-Cyclopropyl-7-hydroxy-4-isobutyl-3-(3-morpholino-3-oxoprop-1-en-1-yl)-5-oxo-4,5-dihydropyrazolo[1,5-a]pyrimidine-2,6-dicarboxamide], the IC50 under setting [1] was determined as 0.6 nM.

The record behind these values is patent US20240092784A1, “CONDENSED HETEROCYCLIC COMPOUND” (NISSAN CHEMICAL CORPORATION, priority 2020, published 2024).
